US9394295B2, “Antibacterial homopiperidinyl substituted 3,4-dihydro-1H-[1,8]naphthyridinones” (Janssen Sciences Ireland UC, priority 2011, dated 2016)
pIC50: −log10 of the molar value. In brackets after ≈: the same amount, converted by molar mass. Read-outs that look alike come from different tables or passages of the source.

Columns and labels:
[1] = system: Staphylococcus aureus ATCC 29213; assay: Antibacterial susceptibility testing: IC90 determination (STA); format: cell-based; settings: ATCC29213, S. aureus ATCC 29213, 90% inhibitory concentration for bacterial growth, read-out: STA (361.159) IC90
Method: (§1) The following bacteria were used: Staphylococcus aureus ATCC 29213, methicillin-resistant Staphylococcus aureus (MRSA) ATCC 700788 and Escherichia coli ATCC 35218. The bacteria used in this study were grown overnight in flasks containing 100 ml Mueller-Hinton broth (Difco cat. nr. 0757-17) in sterile de-ionized water, with shaking, at 37° C. Stocks were store at −70° C. until use.
(§2) Bacteria were incubated on a tryptic soy agar plate containing 5% sheep blood (Becton Dickinson cat. nr. 254053) for 18-24 hours at 35° C. in aerobic conditions (first passage). For the second passage, fresh Mueller-Hinton broth is inoculated with 5-10 colonies and grown overnight at 35° C. until turbidity (reaching log-phase) in aerobic conditions is reached. The bacterial suspension is then adjusted to 0.5 McFarland density and further diluted 1:100 in Mueller Hinton broth medium. This is used as inoculum.
(§3) MIC assays were performed by the broth microdilution method in a 96-well format (flat-bottom microtitre plates) with a final volume of 0.1 ml Mueller Hinton broth containing two-fold serial dilutions of compounds and inoculated with 5×10^5 CFU/ml of bacteria (standard inoculum size according to CLSI guidelines). Inhibitors are typically varied over the range of 63 to 0.49 μM. The final DMSO concentration in the assay was 1.25% (maximum tolerable DMSO concentration=6%). In the assays where the effect of human serum on the activity of the compounds against S. aureus was tested, human serum was added at a final concentration of 10%. The plates were incubated at 35° C. for 16-20 hours. At the end of incubation the bacterial growth was quantified fluorometrically. For this, resazurin was added to all wells and the plates were re-incubated. The incubation time is dependent on the type of bacteria. A change in color from blue to pink indicated the growth of bacteria. The fluorescence was read in computer-controlled fluorometer (Fluoroskan Ascent FL, Labsystems) at an excitation wavelength 540 nm and an emission wavelength of 590 nm. The % growth inhibition achieved by the compounds was calculated according to standard methods. The IC90 (expressed in μg/ml) was defined as the 90% inhibitory concentration for bacterial growth. A panel of reference compounds were simultaneously tested for QC approval.

[2] = Cytotoxicity MTT assay (TOX HELAM); format: cell-based; settings: human, HelaM cells, read-out: TOX HELAM (222.125) CC50
Method: Cytotoxicity of the compounds was evaluated using the MTT assay. Human HelaM cells grown in 96-well plates were exposed to serial dilutions of the tested compounds (final volume of 0.2 ml) and incubated for 72 hours at 37° C. and 5% CO2. Inhibitors are typically varied over the range of 25 to 0.8 μM. The final DMSO concentration in the assay is 0.5%. MTT (3-(4,5-Dimethylthiazol-2-yl)-2,5-diphenyltetrazolium bromide, a tetrazole) was added and reduced to purple formazan only in living cells. Solubilization of the formazan crystals was achieved by adding 100 μl 2-propanol. Cell viability was determined by measuring the absorbance of the reduced formazan, giving a purple color, at 540 nm and 690 nm. The absorbance measured at 690 nm was automatically subtracted from the absorbance at 540 nm, to eliminate the effects of non-specific absorption. The percent cytotoxicity achieved by the compounds was calculated according to standard methods. Cytotoxicity is reported as CC50, the concentration that causes a 50% reduction in cell viability.
The results are depicted in the table D2 below (TOX HELAM).

S. aureus = assay: Antibacterial susceptibility testing: IC90 determination with 10% human serum (STA + 10% HS); format: cell-based; settings: Staphylococcus aureus; S. aureus with human serum at final concentration of 10%; read-out: STA + 10% HS (361.169) IC90
Method: as §1, §2, §3
The results are depicted in the table D2 below (STA+10% HS).

[3] = molecular target: T1, S. aureus ATCC 29213 FabI (Staphylococcus aureus, UniProt Q6GI75); assay: Staphylococcus aureus FabI enzyme inhibition assay; format: biochemical; settings: 30 minutes at room temperature, NADH consumption
T1 sequence (Q6GI75 1-256): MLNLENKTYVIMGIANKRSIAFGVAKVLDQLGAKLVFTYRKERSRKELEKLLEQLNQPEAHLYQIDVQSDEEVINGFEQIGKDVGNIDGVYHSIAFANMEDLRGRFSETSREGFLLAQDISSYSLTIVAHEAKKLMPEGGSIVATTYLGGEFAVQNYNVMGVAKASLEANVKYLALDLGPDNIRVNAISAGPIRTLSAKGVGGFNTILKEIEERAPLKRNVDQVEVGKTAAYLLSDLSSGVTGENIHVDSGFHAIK
Method: FabI enzyme inhibition assays were carried out in half-area, 384-well microtitre plates. Compounds were evaluated in 40-μl assay mixtures containing 100 mM NaADA, pH 6.5 (ADA=N-[2-acetamido]-2iminodiacetic acid), 250 μM crotonoyl-CoA, 625 μM NADH and 50 μg/ml S. aureus ATCC 29213 FabI Inhibitors were typically varied over the range of 50 to 0.39 μM. The reaction mixtures were incubated for 30 minutes at room temperature and the reaction was stopped by adding 200 mM Tris buffer (pH 9.0) to create a pH-shift. The consumption of NADH was monitored by measuring the change in absorbance at […]. By comparing sample readings to those of negative (absence of compound) and positive (absence of enzyme) controls, the percent inhibition of enzymatic activity of the compounds was determined. A best-fit curve is fitted by a minimum of squares method. From this an IC50-value (expressed in μg/ml), resulting in 50% inhibition of enzymatic activity, was obtained.

[4] = In vivo pharmacokinetic and oral bioavailability; settings: male Swiss mice; for half-life: read-out: Half life (t1/2) (converted)
Method: The in vivo pharmacokinetics and oral bioavailability of the compound of the examples was/is investigated in male Swiss mice (fed) following single intravenous (i.v.) bolus and oral (p.o.) administration. For the i.v. and p.o. solution formulations, the compound was/is dissolved in a 20% HP-β-CD solution. The pH of the formulations was/is around pH 4. All i.v. formulations were isotonic.

[5] = mouse, plasma, iv, i.v. 2.5 mg/kg
[6] = mouse, plasma, po, p.o. 10 mg/kg

| SMILES | IC90 [1] | IC90 (S. aureus) | pIC50 [3] | CC50 at 72 h [2] | other results |
| --- | --- | --- | --- | --- | --- |
| O=C1CCc2cc(/C=C/C(=O)N3CCCC(c4ccccc4)CC3)cnc2N1 (stereo not drawn) [Co. No. 4] | 3.42 µg/mL (≈ 9.11 µM) | 3.54 µg/mL | 6.18 | > 9.43 µg/mL |  |
| O=C1CCc2cc(/C=C/C(=O)N3CC=C(Cc4ccccc4)CCC3)cnc2N1 [Co. No. 5] | 4.66 µg/mL (≈ 12 µM) | 10.9 µg/mL |  | > 9.73 µg/mL |  |
| COc1cccc(C2=CCN(C(=O)/C=C/c3cnc4c(c3)CCC(=O)N4)CCC2)c1 [Co. No. 6] | 3.21 µg/mL (≈ 7.96 µM) | 6.32 µg/mL |  | > 10.1 µg/mL |  |
| Cc1ccccc1C1=CCN(C(=O)/C=C/c2cnc3c(c2)CCC(=O)N3)CCC1 [Co. No. 7] | 1.47 µg/mL (≈ 3.79 µM) | 2.97 µg/mL | 5.94 | > 9.73 µg/mL |  |
| O=C1CCc2cc(/C=C/C(=O)N3CC=C(c4cccc(Cl)c4)CCC3)cnc2N1 [Co. No. 12] | 0.71 µg/mL (≈ 1.74 µM) | 4.37 µg/mL | 5.90 | 8.23 µg/mL (≈ 20.2 µM) |  |
| O=C1CCc2cc(/C=C/C(=O)N3CC=C(c4ccc(Cl)cc4)CCC3)cnc2N1 [Co. No. 18] | 1.52 µg/mL (≈ 3.73 µM) | 5.08 µg/mL | 5.85 | 6.85 µg/mL (≈ 16.8 µM) |  |
| O=C1CCc2cc(/C=C/C(=O)N3CC=C(c4ccccc4Cl)CCC3)cnc2N1 [Co. No. 20] | 0.63 µg/mL (≈ 1.54 µM) | 1.15 µg/mL | 6.11 | 8.52 µg/mL (≈ 20.9 µM) |  |
| O=C1CCc2cc(/C=C/C(=O)N3CCC=C(c4ccccc4Cl)CC3)cnc2N1 [Co. No. 21] | < 0.2 µg/mL | 0.36 µg/mL | 6.03 | 9.24 µg/mL (≈ 22.7 µM) |  |
| O=C1CCc2cc(/C=C/C(=O)N3CC=C(c4ccccc4F)CCC3)cnc2N1 [Co. No. 22] | 0.59 µg/mL (≈ 1.51 µM) | 1.03 µg/mL | 6.18 | 12.5 µg/mL (≈ 32 µM) |  |
| O=C1CCc2cc(/C=C/C(=O)N3CCC=C(c4ccccc4F)CC3)cnc2N1 [Co. No. 23] | 0.18 µg/mL (≈ 0.46 µM) | 0.35 µg/mL | 5.97 | > 9.83 µg/mL |  |
| O=C1CCc2cc(/C=C/C(=O)N3CCC=C(c4ccc(Cl)cc4)CC3)cnc2N1 [Co. No. 24] | 1.52 µg/mL (≈ 3.73 µM) | 6.17 µg/mL | 5.72 | 7.25 µg/mL (≈ 17.8 µM) |  |
| COc1ccc(C2=CCN(C(=O)/C=C/c3cnc4c(c3)CCC(=O)N4)CCC2)cc1 [Co. No. 25] | 3.06 µg/mL (≈ 7.58 µM) | 5.83 µg/mL | 5.67 | > 10.1 µg/mL |  |
| COc1ccc(C2=CCCN(C(=O)/C=C/c3cnc4c(c3)CCC(=O)N4)CC2)cc1 [Co. No. 26] | 1.46 µg/mL (≈ 3.62 µM) | 2.86 µg/mL | 5.78 | > 10.1 µg/mL |  |
| CC1(c2ccccc2)CCCN(C(=O)/C=C/c2cnc3c(c2)CCC(=O)N3)CC1 (stereo not drawn) [Co. No. 28] | 2.4 µg/mL (≈ 6.16 µM) | 7.42 µg/mL | ~5.78 | > 9.78 µg/mL |  |
| COc1cccc(F)c1C1=CCCN(C(=O)/C=C/c2cnc3c(c2)CCC(=O)N3)CC1 [Co. No. 31] | 0.21 µg/mL (≈ 0.498 µM) | 0.26 µg/mL | 5.79 | > 10.6 µg/mL |  |
| O=C1CCc2cc(/C=C/C(=O)N3CC=C(c4ccccc4)CCC3)cnc2N1 [compound 1] |  |  | 6.02 |  |  |
| O=C1CCc2cc(/C=C/C(=O)N3CCCC(n4cccn4)CC3)cnc2N1 (stereo not drawn) [compound 49] |  |  | 5.34 |  |  |

Further molecules by rising pIC50 [3], results first:

| IC90 [1] | IC90 (S. aureus) | pIC50 [3] | SMILES | CC50 at 72 h [2] | other results |
| --- | --- | --- | --- | --- | --- |
| 0.78 µg/mL (≈ 1.93 µM) | 1.66 µg/mL | 5.62 | COc1cccc(C2=CCCN(C(=O)/C=C/c3cnc4c(c3)CCC(=O)N4)CC2)c1 [Co. No. 29] | > 10.6 µg/mL |  |
|  |  | 5.66 | O=C1CCc2cc(/C=C/C(=O)N3CCCC(n4ccnn4)CC3)cnc2N1 (stereo not drawn) [compound 50] |  |  |
| 21.4 µg/mL (≈ 61.7 µM) | 20.2 µg/mL | 5.82 | O=C1CCc2cc(/C=C/C(=O)N3CCc4ccccc4CC3)cnc2N1 [Co. No. 32] | > 8.73 µg/mL |  |
| 1.43 µg/mL (≈ 3.39 µM) | 3.05 µg/mL | 5.86 | COc1ccc(F)cc1C1=CCN(C(=O)/C=C/c2cnc3c(c2)CCC(=O)N3)CCC1 [Co. No. 13] | > 10.6 µg/mL |  |
| 3.94 µg/mL (≈ 10.1 µM) | 11.2 µg/mL | 6.01 | O=C1CCc2cc(/C=C/C(=O)N3CCCC(Cc4ccccc4)CC3)cnc2N1 (stereo not drawn) [Co. No. 3] | > 9.78 µg/mL |  |
| 0.99 µg/mL (≈ 2.45 µM) | 1.48 µg/mL | 6.01 | COc1ccccc1C1=CCN(C(=O)/C=C/c2cnc3c(c2)CCC(=O)N3)CCC1 [Co. No. 9] | > 10.1 µg/mL |  |
| 1.49 µg/mL (≈ 3.71 µM) | 3.01 µg/mL | 6.02 | Cc1ccc(C)c(C2=CCN(C(=O)/C=C/c3cnc4c(c3)CCC(=O)N4)CCC2)c1 [Co. No. 16] | 9.09 µg/mL (≈ 22.6 µM) |  |
| 0.33 µg/mL (≈ 0.822 µM) | 0.72 µg/mL | 6.02 | Cc1ccc(C)c(C2=CCCN(C(=O)/C=C/c3cnc4c(c3)CCC(=O)N4)CC2)c1 [Co. No. 17] | 4.11 µg/mL (≈ 10.2 µM) |  |
| 0.09 µg/mL (≈ 0.223 µM) | 0.2 µg/mL | 6.06 | COc1ccccc1C1=CCCN(C(=O)/C=C/c2cnc3c(c2)CCC(=O)N3)CC1 [Co. No. 10] | > 10.1 µg/mL | Vdz ([4]; i.v. 2.5 mg/kg): 2.0 L/kg; AUC(0-inf) [4, 5]: 2160 ng·h/mL; C0 ([4]; mouse, plasma, iv, i.v. 2.5 mg/kg, 20% HP-β-CD solution): 3400 ng/mL; half-life [4, 5]: 1.2 h; clearance ([4]; mouse, plasma, iv, i.v. 2.5 mg/kg, read-out: Plasma clearance Cl (converted)): 20 mL/min/kg; bioavailability ([4]; mouse, plasma, po, p.o. 10 mg/kg vs i.v. 2.5 mg/kg): 78%; AUC(0-inf) [4, 6]: 7090 ng·h/mL; Tmax [4, 6]: 0.5 h; Cmax ([4]; mouse, plasma, po, p.o. 10 mg/kg, 20% HP-β-CD solution): 3740 ng/mL; half-life [4, 6]: 2 h |
| 0.69 µg/mL (≈ 1.78 µM) | 0.84 µg/mL | 6.07 | Cc1ccccc1C1=CCCN(C(=O)/C=C/c2cnc3c(c2)CCC(=O)N3)CC1 [Co. No. 8] | 9.3 µg/mL (≈ 24 µM) |  |
| 0.39 µg/mL (≈ 0.962 µM) | 1.02 µg/mL | 6.10 | Cc1ccc(F)cc1C1=CCCN(C(=O)/C=C/c2cnc3c(c2)CCC(=O)N3)CC1 [Co. No. 15] | 8.57 µg/mL (≈ 21.1 µM) |  |
